Measured values as given in ChEMBL document CHEMBL3862012, “Methylene versus carbonyl bridge in the structure of new tubulin polymerization inhibitors with tricyclic A-rings” (Bioorg Med Chem, 2016).

Assays:
Assay type in all cases: functional
[1] = Cytotoxicity against human CCRF-CEM cells assessed as growth inhibition at 10 uM after 48 hrs by SRB assay relative to control; conditions: read-out: GI
[2] = Cytotoxicity against human HL-60(TB) cells assessed as growth inhibition at 10 uM after 48 hrs by SRB assay relative to control; conditions: HL-60, 48 h, read-out: GI
[3] = Cytotoxicity against human RPMI8226 cells assessed as growth inhibition at 10 uM after 48 hrs by SRB assay relative to control; conditions: RPMI-8226, 48 h, read-out: GI
[4] = Cytotoxicity against human SR cells assessed as growth inhibition at 10 uM after 48 hrs by SRB assay relative to control; conditions: read-out: GI
[5] = Cytotoxicity against human HOP92 cells assessed as growth inhibition at 10 uM after 48 hrs by SRB assay relative to control; conditions: HOP-92, 48 h, read-out: GI
[6] = Cytotoxicity against human NCI-H226 cells assessed as growth inhibition at 10 uM after 48 hrs by SRB assay relative to control; conditions: NCI-H226, 48 h, read-out: GI
[7] = Cytotoxicity against human NCI-H23 cells assessed as growth inhibition at 10 uM after 48 hrs by SRB assay relative to control; conditions: NCI-H23, 48 h, read-out: GI
[8] = Cytotoxicity against human NCI-H322M cells assessed as growth inhibition at 10 uM after 48 hrs by SRB assay relative to control; conditions: read-out: GI
[9] = Cytotoxicity against human NCI-H522 cells assessed as growth inhibition at 10 uM after 48 hrs by SRB assay relative to control; conditions: NCI-H522, 48 h, read-out: GI
[10] = Cytotoxicity against human COLO205 cells assessed as growth inhibition at 10 uM after 48 hrs by SRB assay relative to control; conditions: COLO 205, 48 h, read-out: GI
[11] = Cytotoxicity against human HCT116 cells assessed as growth inhibition at 10 uM after 48 hrs by SRB assay relative to control; conditions: HCT-116, 48 h, read-out: GI
[12] = Cytotoxicity against human HCT15 cells assessed as growth inhibition at 10 uM after 48 hrs by SRB assay relative to control; conditions: HCT-15, 48 h, read-out: GI
[13] = Cytotoxicity against human HT-29 cells assessed as growth inhibition at 10 uM after 48 hrs by SRB assay relative to control; conditions: HT-29, 48 h, read-out: GI
[14] = Cytotoxicity against human KM12 cells assessed as growth inhibition at 10 uM after 48 hrs by SRB assay relative to control; conditions: KM12, 48 h, read-out: GI
[15] = Cytotoxicity against human SW620 cells assessed as growth inhibition at 10 uM after 48 hrs by SRB assay relative to control; conditions: SW-620, 48 h, read-out: GI
[16] = Cytotoxicity against human SF268 cells assessed as growth inhibition at 10 uM after 48 hrs by SRB assay relative to control; conditions: SF-268, 48 h, read-out: GI
[17] = Cytotoxicity against human SF295 cells assessed as growth inhibition at 10 uM after 48 hrs by SRB assay relative to control; conditions: SF-295, 48 h, read-out: GI
[18] = Cytotoxicity against human U251 cells assessed as growth inhibition at 10 uM after 48 hrs by SRB assay relative to control; conditions: U-251, 48 h, read-out: GI
[19] = Cytotoxicity against human LOXIMVI cells assessed as growth inhibition at 10 uM after 48 hrs by SRB assay relative to control; conditions: LOX IMVI, read-out: GI
[20] = Cytotoxicity against human MALME-3M cells assessed as growth inhibition at 10 uM after 48 hrs by SRB assay relative to control; conditions: read-out: GI
[21] = Cytotoxicity against human M14 cells assessed as growth inhibition at 10 uM after 48 hrs by SRB assay relative to control; conditions: M14, 48 h, read-out: GI
[22] = Cytotoxicity against human IGROV1 cells assessed as growth inhibition at 10 uM after 48 hrs by SRB assay relative to control; conditions: IGROV-1, 48 h, read-out: GI
[23] = Cytotoxicity against human OVCAR5 cells assessed as growth inhibition at 10 uM after 48 hrs by SRB assay relative to control; conditions: OVCAR-5, 48 h, read-out: GI
[24] = Cytotoxicity against human NCI-ADR-RES cells assessed as growth inhibition at 10 uM after 48 hrs by SRB assay relative to control; conditions: read-out: GI
[25] = Cytotoxicity against human SKOV3 cells assessed as growth inhibition at 10 uM after 48 hrs by SRB assay relative to control; conditions: SK-OV-3, 48 h, read-out: GI
[26] = Cytotoxicity against human 786-0 cells assessed as growth inhibition at 10 uM after 48 hrs by SRB assay relative to control; conditions: 786-0, 48 h, read-out: GI
[27] = Cytotoxicity against human ACHN cells assessed as growth inhibition at 10 uM after 48 hrs by SRB assay relative to control; conditions: read-out: GI
[28] = Cytotoxicity against human Caki1 cells assessed as growth inhibition at 10 uM after 48 hrs by SRB assay relative to control; conditions: CAKI-1, 48 h, read-out: GI
[29] = Cytotoxicity against human TK10 cells assessed as growth inhibition at 10 uM after 48 hrs by SRB assay relative to control; conditions: TK-10, 48 h, read-out: GI
[30] = Cytotoxicity against human UO31 cells assessed as growth inhibition at 10 uM after 48 hrs by SRB assay relative to control; conditions: UO-31, 48 h, read-out: GI
[31] = Cytotoxicity against human PC3 cells assessed as growth inhibition at 10 uM after 48 hrs by SRB assay relative to control; conditions: PC-3, 48 h, read-out: GI
[32] = Cytotoxicity against human DU145 cells assessed as growth inhibition at 10 uM after 48 hrs by SRB assay relative to control; conditions: DU-145, 48 h, read-out: GI
[33] = Cytotoxicity against human MCF7 cells assessed as growth inhibition at 10 uM after 48 hrs by SRB assay relative to control; conditions: MCF7, 48 h, read-out: GI
[34] = Cytotoxicity against human MDA-MB-231 cells assessed as growth inhibition at 10 uM after 48 hrs by SRB assay relative to control; conditions: MDA-MB-231, 48 h, read-out: GI
[35] = Cytotoxicity against human BT549 cells assessed as growth inhibition at 10 uM after 48 hrs by SRB assay relative to control; conditions: BT-549, 48 h, read-out: GI
[36] = Cytotoxicity against human T47D cells assessed as growth inhibition at 10 uM after 48 hrs by SRB assay relative to control; conditions: read-out: GI
[37] = Cytotoxicity against human MDA-MB-468 cells assessed as growth inhibition at 10 uM after 48 hrs by SRB assay relative to control; conditions: MDA-MB-468, 48 h, read-out: GI

| SMILES | inhibition of growth at 10 µM [1] [%] | inhibition of growth at 10 µM [2] [%] | inhibition of growth at 10 µM [3] [%] | inhibition of growth at 10 µM [4] [%] | inhibition of growth at 10 µM [5] [%] | inhibition of growth at 10 µM [6] [%] | inhibition of growth at 10 µM [7] [%] | inhibition of growth at 10 µM [8] [%] | inhibition of growth at 10 µM [9] [%] | inhibition of growth at 10 µM [10] [%] | inhibition of growth at 10 µM [11] [%] | inhibition of growth at 10 µM [12] [%] | inhibition of growth at 10 µM [13] [%] | inhibition of growth at 10 µM [14] [%] | inhibition of growth at 10 µM [15] [%] | inhibition of growth at 10 µM [16] [%] | inhibition of growth at 10 µM [17] [%] | inhibition of growth at 10 µM [18] [%] | inhibition of growth at 10 µM [19] [%] | inhibition of growth at 10 µM [20] [%] | also measured |
| --- | --- | --- | --- | --- | --- | --- | --- | --- | --- | --- | --- | --- | --- | --- | --- | --- | --- | --- | --- | --- | --- |
| COc1ccc(CN2c3ccccc3CCc3ccccc32)cc1F | 96 | 100 | 91 | 88 | 64 | 47 | 61 | 42 | 100 | 100 | 98 | 75 | 98 | 83 | 79 | 61 | 88 | 79 | 50 | 16 | inhibition of growth at 10 µM [21]: 100%; inhibition of growth at 10 µM [22]: 48%; inhibition of growth at 10 µM [23]: 59%; inhibition of growth at 10 µM [24]: 89%; inhibition of growth at 10 µM [25]: 62%; inhibition of growth at 10 µM [26]: 66%; inhibition of growth at 10 µM [27]: 64%; inhibition of growth at 10 µM [28]: 70%; inhibition of growth at 10 µM [29]: 37%; inhibition of growth at 10 µM [30]: 57%; inhibition of growth at 10 µM [31]: 76%; inhibition of growth at 10 µM [32]: 91%; inhibition of growth at 10 µM [33]: 80%; inhibition of growth at 10 µM [34]: 83%; inhibition of growth at 10 µM [35]: 46%; inhibition of growth at 10 µM [36]: 53%; inhibition of growth at 10 µM [37]: 96% |
| COc1ccc(CN2c3ccccc3Sc3ccccc32)cc1F | 78 | 100 | 79 | 83 | 50 | 44 | 69 | 57 | 95 | 100 | 91 | 84 | 100 | 84 | 76 | 61 | 88 | 79 | 60 | 67 | inhibition of growth at 10 µM [21]: 100%; inhibition of growth at 10 µM [22]: 64%; inhibition of growth at 10 µM [23]: 57%; inhibition of growth at 10 µM [24]: 97%; inhibition of growth at 10 µM [25]: 83%; inhibition of growth at 10 µM [26]: 78%; inhibition of growth at 10 µM [27]: 58%; inhibition of growth at 10 µM [28]: 46%; inhibition of growth at 10 µM [29]: 53%; inhibition of growth at 10 µM [30]: 54%; inhibition of growth at 10 µM [31]: 79%; inhibition of growth at 10 µM [32]: 86%; inhibition of growth at 10 µM [33]: 84%; inhibition of growth at 10 µM [34]: 76%; inhibition of growth at 10 µM [35]: 50%; inhibition of growth at 10 µM [36]: 50%; inhibition of growth at 10 µM [37]: 100% |
